The values that follow come from patent EP4744648A1, “LIPOPEPTIDE-CONTAINING FAT-DISSOLVING PRODUCT, AND PREPARATION METHOD THEREFOR AND USE THEREOF” (Bloomage Biotechnology Corporation Limited, priority 2023, dated 2024).

Like-named read-outs stand apart in the source and are kept apart here.

The test system of series [1] is Mouse adipocyte cell line 3T3-F442A. As to the kind of experiment: In vitro cytotoxicity test: relative growth rate of cells by CCK-8. It is filed as cell-based. The settings on record: for relative growth rate: X±SD.
Protocol: Mouse adipocyte cell line 3T3-F442A in the logarithmic growth phase was seeded into a 96-well plate at a density of 1×10^5 cells/mL, with 100 µL per well. The culture medium consisted of a basal culture medium supplemented with 10% fetal bovine serum. The seeded cells were incubated conventionally in a carbon dioxide incubator at 37°C and 5% CO2 for 24 h.
The solution was freshly prepared before use.
After routine incubation for 24 h, the old culture medium was discarded, and then 100 µL of sample solution was added to replace it in the experimental group. An equal volume of serum-free culture medium was added to the normal control group. Each concentration was set up with at least three replicate wells.
After another incubation for 24 h, the relative growth rate of cells was detected by CCK-8. The culture medium was discarded, 100 µL of CCK-8 diluted 10-fold with the serum-free medium was added to each well. The plate was incubated in a cell incubator for another 2 h. The absorbance was determined using a microplate reader at a wavelength of 450 nm. The relative growth rate (RGR) is a ratio of the absorbance of the experimental group to the absorbance of the normal control group.
3T3-F442A mouse adipocytes in the logarithmic growth phase were seeded into a 96-well plate at a density of 1 × 10^5 cells/mL, with 100 µL per well. After incubation for 24 h, the culture medium was replaced with 100 µL of culture medium containing different concentrations of samples. An equal volume of serum-free culture medium was added to the blank control group, and the incubation was continued for another 24 h. The relative growth rate of cells was determined by CCK-8. The blank control was set as 100%, the relative growth rate and half inhibitory concentration of each group were calculated.
Series [2] has as its system Kunming mice. The settings on record: for Adipocyte density (n/mm^2): day 42, M±SEM.
Protocol: In this example, 6-week-old Kunming mice (20-30 g) were used as the model. A total of 200 µL of different drugs was injected subcutaneously at multiple sites with multiple needles into the left inguinal region of each mouse. The experimental groups were set as follows. • 1) Negative control group (n = 9): 200 µL of sterile normal saline; • 2) Sodium deoxycholate group (n = 9): 200 µL of 1% sodium deoxycholate sterile normal saline solution; and • 3) Surfactin HXRZ group (n = 9): 200 µL of 1% surfactin HXRZ sterile normal saline solution.
On day 42 of the experiment, the mice were sacrificed and dissected. The left inguinal adipose tissue was harvested, fixed immediately in adipose tissue fixative and then embedded in paraffin. […] The adipocyte density was then calculated.
Statistical analysis was performed by using ulceration as an indicator of severe local inflammation and subcutaneous nodules and induration as indicators of mild local inflammation.
Series [3] has as its system transgenic obese (ob/ob) mice. The settings on record: for degradation of adipose tissue (H-E sections, FIG. 6): Example 5, 200 µL, one mouse.
Protocol: 6-week-old transgenic obese (ob/ob) mice were used as the animal model. Different drugs were injected into the adipose pads of the left buttock. The mice were totally divided into three groups with 7-10 mice per group, as specified below. • 1) Negative control group: injected with 200 µL of sterile normal saline; • 2) 1% sodium deoxycholate group: injected with 200 µL of sterile normal saline solution containing 1% sodium deoxycholate; • 3) 0.1% surfactin HXRZ group: injected with 200 µL of sterile normal saline solution containing 0.1% surfactin HXRZ.
The day of the first administration was defined as Day 1 of the experiment. Additional administrations were performed on Day 3 and Day 5, respectively. The general condition and administration sites of the mice were observed regularly throughout the experiment. On Day 21 of the experiment, the mice were sacrificed and dissected. The adipose tissue of the left buttock was isolated, fixed immediately in adipose tissue fixative, and then embedded in paraffin. The adipose tissue was stained by hematoxylin and eosin staining for pathological examination, followed by observation and analysis under an optical microscope.
Specifically, 6-week-old transgenic obese (ob/ob) mice were used as the animal model, with one mouse per group. 200 µL each of 0.5% and 1% surfactin HXRZ normal saline solutions (test samples) were injected into the adipose pads of the left buttock, respectively. The day of the first administration was defined as Day 1 of the experiment. Additional administrations were performed on Day 3 and Day 5, respectively. The general condition and administration sites of the mice were observed regularly throughout the experiment. On Day 21 of the experiment, the mice were sacrificed and dissected. The adipose tissue of the left buttock of the mice was isolated, fixed immediately in adipose tissue fixative, and then embedded in paraffin. The adipose tissue was stained by hematoxylin and eosin staining for pathological examination, followed by observation and analysis under an optical microscope.
A short description of series [4]: Surface tension at serial dilutions (CMC value determination), automatic interfacial tensiometer. The class given is physicochemical. As to the method: A 0.1% surfactin HXRZ solution and a sodium deoxycholate solution were separately prepared using purified water, followed by serial dilution to obtain different gradient concentrations. The surface tensions at different concentrations were determined respectively via a JZ-200A automatic interfacial tensiometer. Table 1 CMC value determination results

In series [5] the test system is Kunming mice.
Protocol: 6-week-old Kunming mice (weighing 20-30 g) were used as the model. A total of 200 µL of different drugs was injected subcutaneously at multiple sites with multiple needles into the left inguinal region of each mouse. The experimental groups were set as follows: • 1) Negative control group (n = 3): 200 µL of sterile normal saline; • 2) 1% sodium deoxycholate group (n = 3): 200 µL of 1% sodium deoxycholate normal saline solution; • 3) 2% sodium deoxycholate group (n = 3): 200 µL of 2% sodium deoxycholate normal saline solution; • 4) 0.5% surfactin HXRZ group (n = 3): 200 µL of 0.5% surfactin HXRZ normal saline solution; • 5) 1% surfactin HXRZ group (n = 3): 200 µL of 1% surfactin HXRZ normal saline solution; • 6) 2% surfactin HXRZ group (n = 3): 200 µL of 2% surfactin HXRZ normal saline solution;
Administration was performed once every 7 days. Ulceration at the administration site of each mouse was observed throughout the administration period. On day 21 of the experiment, all mice were sacrificed and dissected.
For a further series, the system named is Female Kunming mice. The series is described as follows: Animal experiment comparing surfactin-C14 and surfactin-C15: subcutaneous injection in right inguinal region, four administrations. The settings on record: for Mean adipocyte area (x±SEM, mm^2) / Mean adipocyte density (x±SEM, n/mm^2): H-E sections.
Where [6] appears, read: Example 8, 0.005 mg/mL, 24 h, 3T3-F442A.
The mark [7] stands for this setting: Example 8, 0.01 mg/mL, 24 h, 3T3-F442A.
Where [8] appears, read: Example 8, 0.02 mg/mL, 24 h, 3T3-F442A.
[9] abbreviates: Example 8, 0.04 mg/mL, 24 h, 3T3-F442A.
The mark [10] stands for this setting: Example 8, 0.08 mg/mL, 24 h, 3T3-F442A.
The mark [11] stands for this setting: 1 mg/mL (low-dose), four administrations.
[12] abbreviates: 5 mg/mL (medium-dose), four administrations.
[13] abbreviates: 10 mg/mL, four administrations once every 14 days, right inguinal.

Protocol for Female Kunming mice: Female Kunming mice (aged 7-8 weeks, weighing 25.55-33.76 g) were taken, ranked in ascending order of body weight, and divided into groups of 7-8 mice using a Latin method. The tails of mice in each cage were marked and distinguished with an oil-based permanent marker.
Based on the injection dose of the positive drug reported in the literature, the subcutaneous injection dose for this test was determined to be 10 mg/mL at a volume of 200 µL. Subcutaneous injection was performed using a four-needle mesotherapy tip (34 G, 1.5 mm long, inner diameter 0.6 mm). Administration was performed sequentially from top to bottom along the right inguinal region. Administration was performed once every 14 days for a total of four administrations.
During the administration period, food intake, water consumption and general activity of all experimental animals in each group were observed daily under identical feeding conditions and housing environments. Daily observation was performed on each mouse to check for ulceration, induration and other lesions at the administration site. 14 days after the second administration, two mice from each group were sacrificed and dissected. All the remaining mice were sacrificed and dissected 14 days after the fourth administration.
In this example, changes in adipose tissue at the administration sites of experimental mice were statistically analyzed. Specifically, the adipose tissue was excised from the inguinal region on the inoculated side (right side), weighed and recorded. The adipose tissue-to-body weight percentage of the inoculated side for each mouse was then calculated using the formula: [(weight of adipose tissue on the inoculated side/body weight of the mouse) × 100%].
Further statistical analysis was performed on adipocyte density and adipocyte area. The adipose tissue from the inoculated side was immersed in adipose tissue fixative and sent for hematoxylin-eosin (H-E) staining. After imaging was completed, all measurements were standardized in millimeters. The area of adipose tissue in each image was measured, and the number of adipocytes in each image was counted. The area of a single adipocyte was calculated as: adipocyte area = total adipose tissue area/adipocyte number; adipocyte density = adipocyte number/total adipose tissue area.

On to surfactin [Surfactin HXRZ], for which the “treatment time at which adipocytes were completely lysed” value in series [1] (0.08 mg/mL) was 24 h. The “cell morphology of adipocytes (inverted microscope, FIG. 4)” value in series [1] (0.08 mg/mL, 24 h) is given as “nearly all cells died”. Further, in series [1] (3T3-F442A adipocytes, 24 h, calculated from Table 2 curves), the “half maximal inhibitory concentrations IC50” value was 27.1 mg/L. Further, the “Relative growth rate (%)” value in series [1] (Example 2, 0.005 mg/mL, 24 h, 3T3-F442A) was determined as 101.2±15.71%; in series [1] (Example 2, 0.01 mg/mL, 24 h, 3T3-F442A), 90.23±4.30%; in series [1] (Example 2, 0.02 mg/mL, 24 h, 3T3-F442A) it was 67.56±3.81%; in series [1] (Example 2, 0.04 mg/mL, 24 h, 3T3-F442A) it was 19.34±1.43%; in series [1] (Example 2, 0.08 mg/mL, 24 h, 3T3-F442A), 10.74±0.51%; in series [1] (Example 3, 0.02 mg/mL, 0.5 h), 75.21±4.86%. For the same substance, the “Relative growth rate (%)” value is given as 61.07±5.11% in series [1] (Example 3, 0.02 mg/mL, 4 h); 67.56±0.09% in series [1] (Example 3, 0.02 mg/mL, 24 h); 59.48±3.47% in series [1] (Example 3, 0.04 mg/mL, 0.5 h); 37.95±1.99% in series [1] (Example 3, 0.04 mg/mL, 4 h); 19.34±0.03% in series [1] (Example 3, 0.04 mg/mL, 24 h); 32.81±6.73% in series [1] (Example 3, 0.08 mg/mL, 0.5 h). Also, the “Relative growth rate (%)” value in series [1] (Example 3, 0.08 mg/mL, 4 h) is reported as 24.38±3.37%; in series [1] (Example 3, 0.08 mg/mL, 24 h), 10.74±0.01%. Also, the relative growth rate in series [1] (setting [6]) is recorded as 103.67±1.59 b, c %; in series [1] (setting [7]), 67.49±5.46 a, b, c %; in series [1] (setting [8]) it was 20.76±5.32 a, b, c %; in series [1] (setting [9]), 9.99±0.38 b %; in series [1] (setting [10]), 9.01±0.06 b, c %. For the same substance, in the series with Kunming mice [2] (1 %, 200 µL s.c. left inguinal, once every 14 days, day 42, n = 9), the “Adipose tissue weight” value is 0.2007 ± 0.0365 g. Moreover, the “Adipocyte density (n/mm^2)” value was 676.94±51.326 n/mm^2 in the series on Kunming mice [2] (1 %, 200 µL s.c.) and 676.94±51.326 n/mm^2 with Kunming mice [2] (1 %, 200 µL s.c., listed as surfactin HXRZ). Further, the “Fat index (%)” value in the series with Kunming mice [2] (1 %, 200 µL s.c., day 42, treated-side inguinal adipose weight/body weight × 100%) is 0.50±0.10 %. Moreover, the Ulceration in the series with Kunming mice [2] (mouse, in vivo) stood at 0. Moreover, the “ulceration at the administration sites over the administration cycle” value with Kunming mice [2] (mouse, in vivo) is recorded as “no ulceration occurred at the administration sites”. In addition, the “degradation of adipose tissue at the administration sites (H-E sections, FIG. 5)” value in series [3] (Example 4, 0.1 %, 200 µL in normal saline, left buttock, Days 1, 3, 5, Day 21) is recorded as “induced the degradation of adipose tissue at the administration sites”. The “degradation of adipose tissue (H-E sections, FIG. 6)” value is listed as “induced the degradation of adipose tissue in mice” in series [3] (0.5 %, left buttock, Days 1, 3, 5, Day 21) and “induced the degradation of adipose tissue in mice” in series [3] (1 %, left buttock, Days 1, 3, 5, Day 21). The “induration / ulceration at the administration sites” value in series [3] (mouse, in vivo) is “No such phenomena were observed”. Also, the Surface tension value stood at 39.08 mN/m in series [4] (solution concentration 0.00078125 % in purified water); 38.38 mN/m in series [4] (solution concentration 0.0015625 % in purified water); 37.64 mN/m in series [4] (solution concentration 0.003125 % in purified water); 37.16 mN/m in series [4] (solution concentration 0.00625 % in purified water); 36.28 mN/m in series [4] (solution concentration 0.0125 % in purified water); 35.64 mN/m in series [4] (solution concentration 0.025 % in purified water). The Surface tension value in series [4] (solution concentration 0.05 % in purified water) came to 33.43 mN/m; in series [4] (solution concentration 0.05 % in purified water, listed as surfactin HXRZ), 33 mN/m; in series [4] (solution concentration 0.1 % in purified water), 33.69 mN/m. Also, in the series with Kunming mice [5] (0.5 %, treated side vs untreated side), the “degradation of inguinal adipose tissue at the administration sites (dissection, FIG. 9)” value was “a certain degree of degradation”. In the series on Kunming mice [5] (mouse, in vivo), the “degree of ulceration at the administration sites compared with sodium deoxycholate” value is listed as “milder than that in the 2% sodium deoxycholate group”. Moreover, the “degree of ulceration compared with sodium deoxycholate” value with Kunming mice [5] (mouse, in vivo) is given as “milder than that in the 1% sodium deoxycholate group”. For the same substance, the healing of ulceration entry in the series on Kunming mice [5] (mouse, in vivo) is “healed completely”. Further, the healing of ulcers result in the series on Kunming mice [5] (mouse, in vivo) is given as “failed to heal”. Moreover, in the series with Kunming mice [5] (mouse, in vivo, sc), the “ulceration at the injection sites” value is listed as “no ulceration occurred at the injection sites”.
With surfactin-C13 [HXRZ-A], the relative growth rate in series [1] (setting [6]) is reported as 97.66±3.27 c %; in series [1] (setting [7]) it was 97.00±3.13 b, c %; in series [1] (setting [8]), 34.74±3.25 #, b, c %; in series [1] (setting [9]) it was 9.83±0.36 %; in series [1] (setting [10]), 9.27±0.24 b, c %.
For surfactin-C14 [HXRZ-B], the relative growth rate in series [1] (setting [6]) is on record as 89.75±7.04 #, c %; in series [1] (setting [7]) it was 46.22±4.26 #, a %; in series [1] (setting [8]), 14.74±0.48 #, a %; in series [1] (setting [9]), 9.02±0.37 #, c %; in series [1] (setting [10]) it was 8.11±0.24 #, a, c %. For the same substance, the “Mean adipocyte area (x±SEM, mm^2)” value is given as 0.00284±0.000267 mm^2 in the series with Female Kunming mice (1 mg/mL (low-dose)); 0.003554±0.00047 mm^2 in the series on Female Kunming mice (5 mg/mL (medium-dose)); 0.003177±0.000284 mm^2 in the series with Female Kunming mice (10 mg/mL, four administrations). Further, the “Mean adipocyte density (x±SEM, n/mm^2)” value with Female Kunming mice (1 mg/mL (low-dose)) is on record as 418.7156±85.9688 n/mm^2; in the series with Female Kunming mice (5 mg/mL (medium-dose)), 313.2046±85.5687 n/mm^2; in the series on Female Kunming mice (10 mg/mL, four administrations), 340.3195±31.7463 n/mm^2. Moreover, the “Mean wet adipose tissue weight (x±SEM, unit: g)” value with Female Kunming mice (setting [11]) was 0.326 ± 0.106 g; in the series on Female Kunming mice (setting [12]), 0.225 ± 0.039 g; with Female Kunming mice (setting [13]), 0.232 ± 0.032 g. For the same substance, the “Mean wet adipose tissue weight/body weight percentage (x±SEM, %)” value came out at 0.76±0.21% in the series with Female Kunming mice (setting [11]); 0.56±0.08 % in the series on Female Kunming mice (setting [12]); 0.58±0.07 % with Female Kunming mice (10 mg/mL, four administrations).
With surfactin-C15 [HXRZ-C], the relative growth rate is reported as 76.06±3.24 #, a, b % in series [1] (setting [6]); 43.53±3.35 #, a % in series [1] (setting [7]); 17.61±1.76 #, a % in series [1] (setting [8]); 10.29±0.38 b % in series [1] (setting [9]); 10.31±0.48 *,#,a,b % in series [1] (setting [10]). In series [1] (Example 8, 3T3-F442A, 24 h), the “IC50 against adipocytes relative to HXRZ-A” value is “approximately half that of HXRZ-A”. The “Mean adipocyte area (x±SEM, mm^2)” value with Female Kunming mice (1 mg/mL (low-dose)) was 0.003222±0.000161 mm^2; in the series on Female Kunming mice (5 mg/mL (medium-dose)) it was 0.003297±0.000274 mm^2; in the series with Female Kunming mice (10 mg/mL, four administrations), 0.004632±0.000253 mm^2. The “Mean adipocyte density (x±SEM, n/mm^2)” value with Female Kunming mice (1 mg/mL (low-dose)) turned out to be 355.3684±57.4571 n/mm^2; in the series on Female Kunming mice (5 mg/mL (medium-dose)), 328.9026±63.1322 n/mm^2; in the series with Female Kunming mice (10 mg/mL, four administrations), 251.3400±31.0087 n/mm^2. The figures for the “Mean wet adipose tissue weight (x±SEM, unit: g)” value in the series on Female Kunming mice (setting [11]), in the series on Female Kunming mice (setting [12]) and with Female Kunming mice (setting [13]) were 0.198 ± 0.030 g, 0.209 ± 0.021 g and 0.188 ± 0.011 g, respectively. Besides, the “Mean wet adipose tissue weight/body weight percentage (x±SEM, %)” value turned out to be 0.51±0.08 % in the series on Female Kunming mice (setting [11]); 0.53±0.05 % in the series with Female Kunming mice (setting [12]); 0.48±0.02 % in the series with Female Kunming mice (10 mg/mL, four administrations).
